Test results as given in patent EP0908457B1, “3-(1,2-benzisothiazol- and isoxazol-5-Y1)-2,4(1H,3H)-pyrimidinedione or thione and 3-(1,2-benzisothiazol- and isoxazol-5-y1)-4(3H)-pyrimidinone or thione herbicidal agents” (BASF AKTIENGESELLSCHAFT, priority 1997, dated 1999).

How the values were obtained:
[1] = system: Cyperus serotinus, Rottb.; test: Preemergence weed control under flooded paddy conditions, CYPSE (Flatsedge); format: in vivo; conditions: for CYPSE: herbicidal effect rating 0-9, three to four weeks after treatment; for herbicidal effect rating, CYPSE: meaning of each grade not given here
[2] = system: Sagittaria pygmaea, L.; test: Preemergence weed control under flooded paddy conditions, SAGPY (Arrowhead (Pygmaea)); format: in vivo; conditions: flooded paddy; for SAGPY: herbicidal effect rating 0-9, three to four weeks after treatment; for herbicidal effect rating, SAGPY: meaning of each grade not given here
[3] = system: Monochoria vaginalis, Presl.; test: Preemergence weed control under flooded paddy conditions, MOOVA (Monochoria); format: in vivo; conditions: flooded paddy; for MOOVA: herbicidal effect rating 0-9, three to four weeks after treatment; for herbicidal effect rating, MOOVA: meaning of each grade not given here
[4] = system: Oryza sativa, (L.) Tebonnet; test: Rice tolerance to post-transplant applications under flooded paddy conditions (Example 187), ORYSAT (Rice, Tebonnet); conditions: for ORYSAT: herbicidal effect rating 0-9, three to four weeks after treatment; for herbicidal effect rating ORYSAT: meaning of each grade not given here
[5] = system: Cyperus iria; test: Preemergence weed control under flooded paddy conditions, CYPIR (Rice Flatsedge); format: in vivo; conditions: flooded paddy; for CYPIR: herbicidal effect rating 0-9, three to four weeks after treatment; for herbicidal effect rating, CYPIR: meaning of each grade not given here
[6] = system: Echinochloa oryzoides (Ard.) Fritsch.; test: Preemergence weed control under flooded paddy conditions, ECHORC (Watergrass (Calif.)); format: in vivo; conditions: flooded paddy; for ECHORC: herbicidal effect rating 0-9, three to four weeks after treatment; for herbicidal effect rating, ECHORC: meaning of each grade not given here
[7] = Rate 0.0313 kg/ha, preemergence, rated three to four weeks after treatment
[8] = Rate 0.0625 kg/ha, preemergence, rated three to four weeks after treatment
[9] = Rate 0.1250 kg/ha, preemergence, rated three to four weeks after treatment
[10] = Rate 0.2500 kg/ha, preemergence, rated three to four weeks after treatment
[11] = Rate 0.1250 kg/ha, rated three to four weeks after treatment
[12] = Rate 0.2500 kg/ha, rated three to four weeks after treatment
[13] = Rate 0.0320 kg/ha, preemergence, rated three to four weeks after treatment
[14] = Rate 0.0620 kg/ha, preemergence, rated three to four weeks after treatment
[15] = Rate 0.0320 kg/ha, preemergence, rated 3-4 weeks after treatment
[16] = Rate 0.0620 kg/ha, preemergence, rated 3-4 weeks after treatment
[17] = Rate 0.1250 kg/ha, preemergence, rated 3-4 weeks after treatment
[18] = Rate 0.2500 kg/ha, preemergence, rated 3-4 weeks after treatment
[19] = 0.2500 kg/ha, preemergence weeds
[20] = 0.0320 kg/ha, preemergence weeds
[21] = 0.0620 kg/ha, preemergence weeds
[22] = 0.1250 kg/ha, preemergence weeds
[23] = 0.0313 kg/ha, preemergence weeds, rated three to four weeks after treatment
[24] = 0.0625 kg/ha, preemergence weeds, rated three to four weeks after treatment
[25] = 0.1250 kg/ha, preemergence weeds, rated three to four weeks after treatment
[26] = 0.2500 kg/ha, preemergence weeds, rated three to four weeks after treatment

Cn1c(C(F)(F)F)cc(=O)n(-c2ccc3snc(COCCCCl)c3c2)c1=O [Example 224, 3-{3-[(3-Chloropropoxy)methyl]-1,2-benzisothiazol-5-yl}-1-methyl-6-(trifluoromethyl)-2,4(1H,3H)-pyrimidinedione]
6.0: ORYSAT herbicidal effect rating ([4]; Rate 0.0313 kg/ha, rated three to four weeks after treatment) | ECHORC herbicidal effect rating [6, 7]
8.0: SAGPY herbicidal effect rating [2, 10] | ORYSAT herbicidal effect rating [4, 11] | CYPIR herbicidal effect rating [5, 9] | CYPIR herbicidal effect rating [5, 10]
9.0: MOOVA herbicidal effect rating [3, 7] | MOOVA herbicidal effect rating [3, 8] | MOOVA herbicidal effect rating [3, 9] | MOOVA herbicidal effect rating [3, 10] | ORYSAT herbicidal effect rating [4, 12] | ECHORC herbicidal effect rating [6, 8] | ECHORC herbicidal effect rating [6, 9] | ECHORC herbicidal effect rating [6, 10]
4.0: SAGPY herbicidal effect rating [2, 9] | CYPIR herbicidal effect rating [5, 7]
0.0: CYPSE herbicidal effect rating [1, 7] | CYPSE herbicidal effect rating [1, 8] | SAGPY herbicidal effect rating [2, 7]
2.0: CYPSE herbicidal effect rating [1, 9] | SAGPY herbicidal effect rating [2, 8]
7.0: CYPSE herbicidal effect rating [1, 10] | ORYSAT herbicidal effect rating ([4]; Rate 0.0625 kg/ha, rated three to four weeks after treatment) | CYPIR herbicidal effect rating [5, 8]

Cn1c(C(F)(F)F)cc(=O)n(-c2ccc3snc(COCc4ccc(Cl)c(Cl)c4)c3c2)c1=O [Example 586, 2,4(1H,3H)-Pyrimidinedione, 3-{3-{[(3,4-dichlorobenzyl)oxy]methyl}-1,2-benzisothiazol-5-yl}-1-methyl-6-(trifluoromethyl)-]
8.5: herbicidal effect rating, CYPIR [5, 14]
6.5: herbicidal effect rating, MOOVA [3, 14]
9.0: herbicidal effect rating, MOOVA [3, 13] | herbicidal effect rating, MOOVA [3, 9] | herbicidal effect rating, MOOVA [3, 10] | herbicidal effect rating, CYPIR [5, 9] | herbicidal effect rating, CYPIR [5, 10] | herbicidal effect rating, ECHORC [6, 14] | herbicidal effect rating, ECHORC [6, 9] | herbicidal effect rating, ECHORC [6, 10]
8.0: herbicidal effect rating, CYPIR [5, 13] | herbicidal effect rating, ECHORC [6, 13]
2.0: herbicidal effect rating ORYSAT ([4]; Rate 0.0620 kg/ha, rated three to four weeks after treatment) | herbicidal effect rating ORYSAT [4, 11] | herbicidal effect rating ORYSAT [4, 12]
0.0: herbicidal effect rating, CYPSE [1, 13] | herbicidal effect rating, CYPSE [1, 14] | herbicidal effect rating, SAGPY [2, 13] | herbicidal effect rating, SAGPY [2, 14] | herbicidal effect rating, SAGPY [2, 9] | herbicidal effect rating, SAGPY [2, 10]
4.5: herbicidal effect rating, CYPSE [1, 9] | herbicidal effect rating, CYPSE [1, 10]
1.0: herbicidal effect rating ORYSAT ([4]; Rate 0.0320 kg/ha, rated three to four weeks after treatment)

C=CCOC(=O)C(C)(C)Oc1ccc(C)cc1-c1nsc2ccc(-n3c(=O)cc(C(F)(F)F)n(C)c3=O)cc12 [Example 530, Propionic acid, 2-{{2-{5-[3,6-dihydro-3-methyl-2,6-dioxo-4-(trifluoromethyl)-1(2H)-pyrimidinyl]-1,2-benzisothiazol-3-yl}-p-tolyl}oxy}-2-methyl-, allyl ester]
9.0: herbicidal effect rating, SAGPY [2, 18] | herbicidal effect rating, MOOVA [3, 15] | herbicidal effect rating, MOOVA [3, 16] | herbicidal effect rating, MOOVA [3, 17] | herbicidal effect rating, MOOVA [3, 18] | herbicidal effect rating ORYSAT ([4]; Rate 0.2500 kg/ha, rated 3-4 weeks after treatment) | herbicidal effect rating, CYPIR [5, 16] | herbicidal effect rating, CYPIR [5, 17] | herbicidal effect rating, CYPIR [5, 18] | herbicidal effect rating, ECHORC [6, 15] | herbicidal effect rating, ECHORC [6, 16] | herbicidal effect rating, ECHORC [6, 17] | herbicidal effect rating, ECHORC [6, 18]
3.0: herbicidal effect rating, SAGPY [2, 17] | herbicidal effect rating ORYSAT ([4]; Rate 0.1250 kg/ha, rated 3-4 weeks after treatment)
0.0: herbicidal effect rating, CYPSE [1, 15] | herbicidal effect rating, CYPSE [1, 16] | herbicidal effect rating, CYPSE [1, 17] | herbicidal effect rating, CYPSE [1, 18] | herbicidal effect rating, SAGPY [2, 15] | herbicidal effect rating, SAGPY [2, 16] | herbicidal effect rating ORYSAT ([4]; Rate 0.0320 kg/ha, rated 3-4 weeks after treatment) | herbicidal effect rating ORYSAT ([4]; Rate 0.0620 kg/ha, rated 3-4 weeks after treatment) | herbicidal effect rating, CYPIR [5, 15]

CN(Cc1ccc(Cl)cc1)S(=O)(=O)NC(=O)c1nsc2ccc(-n3c(=O)cc(C(F)(F)F)n(C)c3=O)cc12 [Example 420, 1,2-Benzisothiazole-3-carboxamide, N-[(p-chlorobenzyl)methylsulfamoyl]-5-[3,6-dihydro-3-methyl-2,6-dioxo-4-(trifluoromethyl)-1(2H)-pyrimidinyl]-]
4.0: CYPIR [5, 21]
3.0: SAGPY [2, 19] | ORYSAT ([4]; 0.1250 kg/ha)
9.0: MOOVA [3, 20] | MOOVA [3, 21] | MOOVA [3, 22] | MOOVA [3, 19]
2.0: SAGPY [2, 22] | ORYSAT ([4]; 0.0620 kg/ha) | CYPIR [5, 20]
0.0: CYPSE [1, 19] | SAGPY [2, 20] | SAGPY [2, 21] | ORYSAT ([4]; 0.0320 kg/ha)
5.0: ORYSAT ([4]; 0.2500 kg/ha)
7.0: ECHORC [6, 20] | ECHORC [6, 21] | ECHORC [6, 22] | ECHORC [6, 19]
6.0: CYPIR [5, 22] | CYPIR [5, 19]

Cn1c(C(F)(F)F)cc(=O)n(-c2ccc3snc(C(=O)NS(=O)(=O)Cc4ccccc4[N+](=O)[O-])c3c2)c1=O [Example 404, 1,2-Benzisothiazole-3-carboxamide, 5-[3,6-dihydro-3-methyl-2,6-dioxo-4-(trifluoromethyl)-1(2H)-pyrimidinyl]-N-[(o-nitrobenzyl)sulfonyl]-]
3.0: ECHORC [6, 21]
4.0: MOOVA [3, 20]
0.0: CYPSE [1, 20] | CYPSE [1, 21] | CYPSE [1, 22] | CYPSE [1, 19] | SAGPY [2, 20] | SAGPY [2, 21] | SAGPY [2, 22] | SAGPY [2, 19] | ORYSAT ([4]; 0.0320 kg/ha) | ORYSAT ([4]; 0.0620 kg/ha) | ORYSAT ([4]; 0.1250 kg/ha) | CYPIR [5, 20] | CYPIR [5, 21] | ECHORC [6, 20]
2.0: ORYSAT ([4]; 0.2500 kg/ha) | CYPIR [5, 22]
7.0: ECHORC [6, 19]
5.0: MOOVA [3, 21] | MOOVA [3, 22]
6.0: MOOVA [3, 19] | CYPIR [5, 19] | ECHORC [6, 22]

Cn1c(C(F)(F)F)cc(=O)n(-c2ccc3snc(C(CCl)CCl)c3c2)c1=O [Example 199, 3-{3-[2-Chloro-1-(chloromethyl)ethyl]-1,2-benzisothiazol-5-yl}-1-methyl-6-(trifluoromethyl)-2,4(1H,3H)-pyrimidinedione]
4.0: herbicidal effect rating, ORYSAT (rice tolerance) ([4]; 0.0625 kg/ha, rated three to four weeks after treatment) | herbicidal effect rating, CYPIR [5, 25] | herbicidal effect rating, ECHORC [6, 24]
3.0: herbicidal effect rating, ORYSAT (rice tolerance) ([4]; 0.0313 kg/ha, rated three to four weeks after treatment)
2.0: herbicidal effect rating, CYPIR [5, 24] | herbicidal effect rating, ECHORC [6, 23]
8.0: herbicidal effect rating, MOOVA [3, 23] | herbicidal effect rating, ORYSAT (rice tolerance) ([4]; 0.2500 kg/ha, rated three to four weeks after treatment) | herbicidal effect rating, CYPIR [5, 26]
9.0: herbicidal effect rating, MOOVA [3, 24] | herbicidal effect rating, MOOVA [3, 25] | herbicidal effect rating, MOOVA [3, 26]
7.0: herbicidal effect rating, ECHORC [6, 25] | herbicidal effect rating, ECHORC [6, 26]
0.0: herbicidal effect rating, CYPSE [1, 23] | herbicidal effect rating, CYPSE [1, 24] | herbicidal effect rating, CYPSE [1, 25] | herbicidal effect rating, CYPSE [1, 26] | herbicidal effect rating, SAGPY [2, 23] | herbicidal effect rating, SAGPY [2, 24] | herbicidal effect rating, SAGPY [2, 25] | herbicidal effect rating, SAGPY [2, 26] | herbicidal effect rating, CYPIR [5, 23]
6.0: herbicidal effect rating, ORYSAT (rice tolerance) ([4]; 0.1250 kg/ha, rated three to four weeks after treatment)
